Assay results published in patent US20260207623A1, “USE OF ESTETROL IN HEPATICALLY IMPAIRED PATIENTS” (ESTETRA SRL, priority 2022, published 2026).
Values joined by “and” are separate entries in the source; they are usually repeats but may differ in a detail not shown here. Identical values can stand only once. Like-named read-outs stand apart in the source and are kept apart here.

Assay: Phase 1 pharmacokinetic study of a single oral dose of 20 mg E4 monohydrate in female subjects with normal hepatic function and mild, moderate or severe hepatic impairment (plasma, LC-MS/MS, non-compartmental analysis)
Type: in vivo, human
Settings: for AUC(0-t) / Cmax / half-life / Tmax / Vd/F / AUC(0-inf): female, human, plasma, po, 20 mg; for Tmax: read-out: Tmax, Median
Protocol: This was a Phase 1, multi-centre, open-label, PK, and safety study of a single oral dose of 20 mg E4 monohydrate in female subjects with normal hepatic function (Group 1), mild hepatic impairment (Group 2), moderate hepatic impairment (Group 3), and severe hepatic impairment (Group 4), as defined using the Child-Pugh classification at Screening.
The study consisted of an eligibility Screening period (within 28 days prior to study drug administration), an Assessment Period with in-house period and outpatient visits (including a single oral dose of 20 mg E4 on Day 1), and a follow up visit. All subjects were confined to the study site from Day-1 (the day before dosing) until Day 4 and returned to the site every day from Day 5 to Day 9. Alternatively, the subjects could stay for a prolonged in-house period in agreement with the Investigator. The follow-up visit occurred on Day 14 (+2 days).
All subjects arrived at the study site in the morning of Day-1 in a fasted state (no food for at least 8 h, water was allowed) to have the scheduled assessments performed in order to confirm eligibility as outlined in the inclusion and exclusion criteria (Section 2.3.1 and Section 2.3.2, respectively). In the morning of Day 1 following an overnight fast, the subjects received oral dosing of 20 mg E4 monohydrate and remained at the site. Study-related assessments were performed at time points indicated in the Schedule of Assessments in Table 2.
Serial blood sampling for PK assessments started on Day 1 and proceeded until Day 9 according to the Pharmacokinetic Sampling Schedule presented in Table 3.
Each enrolled subject was to receive a single oral dose of 20 mg of E4 (estetrol) as monohydrate as a film-coated tablet.
Study drug was administered to subjects in the morning after an overnight fast of at least 8 h.
Calculation of non-compartmental PK parameters were done using WinNonlin™ Professional, Version 6.3 or higher.
The primary PK parameters to be analyzed for E4 in plasma: • Cmax=maximum observed plasma concentration • AUCinf=area under the concentration-time curve (AUC) from time zero extrapolated to infinity
The analysis of E4 and the metabolites E4-3-glucuronide and E4-16-glucuronide in plasma samples were performed at the Bioanalytical Laboratory of the CRO using a validated liquid chromatography-mass spectrometry/mass spectrometry method.
Individual and mean plasma concentrations at each sampling time point for E4 are presented by listings and descriptive summary statistics including means, geometric means (GMs), medians, ranges, standard deviations (SD) and coefficients of variation (CV). Individual, mean and/or median concentrations per hepatic function group were plotted versus time on semilogarithmic scales.
PK parameters were calculated by non-compartmental analysis. PK parameters were analysed using descriptive statistics and are presented by hepatic function group.
Analysis of variance (ANOVA) were used to compare primary PK parameters of E4 (Cmax and AUCinf) between subjects with hepatic impairment and subjects with normal hepatic function in an exploratory approach, using the log-transformed value of each PK parameter as dependent variable, and the hepatic impairment group (normal, mild, moderate, and severe) as a fixed classification factor. Geometric least squares means were used to calculate the ratios of primary PK parameters for each hepatic impairment group to those in the control group, along with 90% confidence intervals (CIs).
Additionally, the impact of age and BMI on the effect of hepatic impairment were evaluated using an ANOVA model similar as the ANOVA model described above, but with the interaction between each factor and the hepatic impairment group included as an additional factor.
The relationship between log-transformed PK parameters (Cmax and AUCinf) and continuous parameters (albumin, total bilirubin, and prothrombin time) used for the Child-Pugh score was explored by a linear regression approach. […]

[1] = mild hepatic impairment, single oral dose 20 mg
[2] = moderate hepatic impairment, single oral dose 20 mg
[3] = severe hepatic impairment, single oral dose 20 mg

C[C@]12CC[C@@H]3c4ccc(O)cc4CC[C@H]3[C@@H]1[C@@H](O)[C@@H](O)[C@@H]2O [E4, 1,3,5 (10)-estratrien-3,15alpha, 16alpha, 17beta-tetrol]
AUC(0-t) (Moderate hepatic impairment, single oral dose 20 mg E4 monohydrate, read-out: AUClast, Mean): 122 ng·h/mL | AUC(0-t) (Moderate hepatic impairment, single oral dose 20 mg E4 monohydrate, read-out: AUClast, Median): 114 ng·h/mL | Cmax (Moderate hepatic impairment, single oral dose 20 mg E4 monohydrate, read-out: Cmax, GM): 39.4 ng/mL | Cmax (Moderate hepatic impairment, single oral dose 20 mg E4 monohydrate, read-out: Cmax, Mean): ~52 ng/mL | Cmax (Moderate hepatic impairment, single oral dose 20 mg E4 monohydrate, read-out: Cmax, Median): 41.1 ng/mL | half-life (Moderate hepatic impairment, single oral dose 20 mg E4 monohydrate, read-out: T1/2, GM (converted)): 14.8 h | half-life (Moderate hepatic impairment, single oral dose 20 mg E4 monohydrate, read-out: T1/2, Mean (converted)): 16.6 h | half-life (Moderate hepatic impairment, single oral dose 20 mg E4 monohydrate, read-out: T1/2, Median (converted)): 14.3 h | Tmax (Moderate hepatic impairment, single oral dose 20 mg E4 monohydrate): 0.5 h | Vd/F (Moderate hepatic impairment, single oral dose 20 mg E4 monohydrate, read-out: Vz/F, GM): 3960 L | Vd/F (Moderate hepatic impairment, single oral dose 20 mg E4 monohydrate, read-out: Vz/F, Mean): 4760 L | Vd/F (Moderate hepatic impairment, single oral dose 20 mg E4 monohydrate, read-out: Vz/F, Median): 4150 L | AUC(0-inf) (Normal (Reference), one-way ANOVA, single oral dose 20 mg, read-out: AUCinf, Geometric LS Mean): 104 ng·h/mL | Cmax (Normal (Reference), one-way ANOVA, single oral dose 20 mg, read-out: Cmax, Geometric LS Mean): 20.8 ng/mL | AUC(0-t) (Normal hepatic function, single oral dose 20 mg E4 monohydrate, read-out: AUC0-24 h, GM): 60.4 ng·h/mL | AUC(0-t) (Normal hepatic function, single oral dose 20 mg E4 monohydrate, read-out: AUC0-24 h, Mean): 63.5 ng·h/mL | AUC(0-t) (Normal hepatic function, single oral dose 20 mg E4 monohydrate, read-out: AUC0-24 h, Median): 63.8 ng·h/mL | AUC(0-inf) (Normal hepatic function, single oral dose 20 mg E4 monohydrate, read-out: AUCinf, GM): 104 ng·h/mL | AUC(0-inf) (Normal hepatic function, single oral dose 20 mg E4 monohydrate, read-out: AUCinf, Mean): 108 ng·h/mL | AUC(0-inf) (Normal hepatic function, single oral dose 20 mg E4 monohydrate, read-out: AUCinf, Median): 113 ng·h/mL | AUC(0-t) (Normal hepatic function, single oral dose 20 mg E4 monohydrate, read-out: AUClast, GM): 103 ng·h/mL | AUC(0-t) (Normal hepatic function, single oral dose 20 mg E4 monohydrate, read-out: AUClast, Mean): 107 ng·h/mL | AUC(0-t) (Normal hepatic function, single oral dose 20 mg E4 monohydrate, read-out: AUClast, Median): 111 ng·h/mL | Cmax (Normal hepatic function, single oral dose 20 mg E4 monohydrate, read-out: Cmax, GM): 20.8 ng/mL | Cmax (Normal hepatic function, single oral dose 20 mg E4 monohydrate, read-out: Cmax, Mean): ~24 ng/mL | Cmax (Normal hepatic function, single oral dose 20 mg E4 monohydrate, read-out: Cmax, Median): 24.8 ng/mL | half-life (Normal hepatic function, single oral dose 20 mg E4 monohydrate, read-out: T1/2, GM (converted)): 21.7 h | half-life (Normal hepatic function, single oral dose 20 mg E4 monohydrate, read-out: T1/2, Mean (converted)): 22.3 h | half-life (Normal hepatic function, single oral dose 20 mg E4 monohydrate, read-out: T1/2, Median (converted)): 22.7 h | Tmax (Normal hepatic function, single oral dose 20 mg E4 monohydrate): 0.475 h | Vd/F (Normal hepatic function, single oral dose 20 mg E4 monohydrate, read-out: Vz/F, GM): 6000 L | Vd/F (Normal hepatic function, single oral dose 20 mg E4 monohydrate, read-out: Vz/F, Mean): 6590 L | Vd/F (Normal hepatic function, single oral dose 20 mg E4 monohydrate, read-out: Vz/F, Median): 6430 L | AUC(0-inf) (Severe (Test), one-way ANOVA, single oral dose 20 mg, read-out: AUCinf, Geometric LS Mean): 198 ng·h/mL | Cmax (Severe (Test), one-way ANOVA, single oral dose 20 mg, read-out: Cmax, Geometric LS Mean): 111 ng/mL | AUC(0-t) (Severe hepatic impairment, single oral dose 20 mg E4 monohydrate, read-out: AUC0-24 h, GM): 179 ng·h/mL | AUC(0-t) (Severe hepatic impairment, single oral dose 20 mg E4 monohydrate, read-out: AUC0-24 h, Mean): 184 ng·h/mL | AUC(0-t) (Severe hepatic impairment, single oral dose 20 mg E4 monohydrate, read-out: AUC0-24 h, Median): 172 ng·h/mL | AUC(0-inf) (Severe hepatic impairment, single oral dose 20 mg E4 monohydrate, read-out: AUCinf, GM): 198 ng·h/mL | AUC(0-inf) (Severe hepatic impairment, single oral dose 20 mg E4 monohydrate, read-out: AUCinf, Mean): 205 ng·h/mL | AUC(0-inf) (Severe hepatic impairment, single oral dose 20 mg E4 monohydrate, read-out: AUCinf, Median): 180 ng·h/mL | AUC(0-t) (Severe hepatic impairment, single oral dose 20 mg E4 monohydrate, read-out: AUClast, GM): 196 ng·h/mL | AUC(0-t) (Severe hepatic impairment, single oral dose 20 mg E4 monohydrate, read-out: AUClast, Mean): 204 ng·h/mL | AUC(0-t) (Severe hepatic impairment, single oral dose 20 mg E4 monohydrate, read-out: AUClast, Median): 178 ng·h/mL | Cmax (Severe hepatic impairment, single oral dose 20 mg E4 monohydrate, read-out: Cmax, GM): 111 ng/mL | Cmax (Severe hepatic impairment, single oral dose 20 mg E4 monohydrate, read-out: Cmax, Mean): ~117 ng/mL | Cmax (Severe hepatic impairment, single oral dose 20 mg E4 monohydrate, read-out: Cmax, Median): 109 ng/mL | half-life (Severe hepatic impairment, single oral dose 20 mg E4 monohydrate, read-out: T1/2, GM (converted)): 8.22 h | half-life (Severe hepatic impairment, single oral dose 20 mg E4 monohydrate, read-out: T1/2, Mean (converted)): 8.97 h | half-life (Severe hepatic impairment, single oral dose 20 mg E4 monohydrate, read-out: T1/2, Median (converted)): 6.26 h | Tmax (Severe hepatic impairment, single oral dose 20 mg E4 monohydrate): 0.25 h | Vd/F (Severe hepatic impairment, single oral dose 20 mg E4 monohydrate, read-out: Vz/F, GM): 1200 L | Vd/F (Severe hepatic impairment, single oral dose 20 mg E4 monohydrate, read-out: Vz/F, Mean): 1260 L | Vd/F (Severe hepatic impairment, single oral dose 20 mg E4 monohydrate, read-out: Vz/F, Median): 1220 L | time to primary peak plasma concentration after administration (group of severe hepatic impairment): ≤ 15 min | time post dose until which concentrations remained above LLOQ in at least half of the subjects (mild hepatic impairment): 144 h | time post-dose of last measurable concentration (Clast) (mild hepatic impairment, 192 h = last measured timepoint): 192 h | GM AUCinf compared to the control group (normal hepatic function) [1]: ~ 1.1 fold and 1.120 fold | GM Cmax compared to the control group (normal hepatic function) [1]: ~ 1.7 fold and 1.661 fold | time post dose until which concentrations remained above LLOQ in at least half of the subjects (moderate hepatic impairment): 96 h | time post-dose of last measurable concentration (Clast) (moderate hepatic impairment): 144 h | GM AUCinf compared to the control group (normal hepatic function) [2]: ~ 1.0 fold and 1.032 fold | GM Cmax compared to the control group (normal hepatic function) [2]: ~ 1.9 fold and 1.896 fold | time post dose until which concentrations remained above LLOQ in at least half of the subjects (normal hepatic function): 144 h | time post-dose of last measurable concentration (Clast) (normal hepatic function, 192 h = last measured timepoint): 192 h | time to primary peak plasma concentration after administration (on average, single oral dose 20 mg): ≤ 30 min | time post dose until which concentrations remained above LLOQ in at least half of the subjects (severe hepatic impairment): 48 h | time post-dose of last measurable concentration (Clast) (severe hepatic impairment): 168 h | GM AUCinf compared to the control group (normal hepatic function) [3]: ~ 1.9 fold and 1.894 fold | GM Cmax compared to the control group (normal hepatic function) [3]: ~ 5.4 fold and 5.359 fold | time after which log-linear terminal elimination phase is entered (single oral dose 20 mg): ~ 12 h
